Results reported in PubChem BioAssay AID1963862 (Molecular Pharmacology Branch, DTP, NCI, 2024).

System: KRAS patient-derived spheroids with HUVEC/MSC, viability
Assay: Anticancer human tumor 941728-121-R-J1-PDC patient-derived lung adenocarcinoma cell line growth inhibition [KRAS2]
Conditions: for IC50: curve of first compound; for viability, T/C: stronger effect = lower value
In short: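 Combination screen of spheroid viability in tumor-cell co-cultures with endothelial (HUVEC) and mesenchymal stem cell stroma. Each agent was tested in half-log dilutions, topping at clinical Cmax or at 10 microM without a known Cmax.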

[1] = second compound 0.1 µM, first compound 0.000316 µM
[2] = second compound 0.1 µM, first compound 0.001 µM
[3] = second compound 0.1 µM, first compound 0.00316 µM
[4] = second compound 0.1 µM, first compound 0.01 µM
[5] = second compound 0.1 µM, first compound 0.0316 µM
[6] = second compound 0.316 µM, first compound 0.000316 µM
[7] = second compound 0.316 µM, first compound 0.001 µM
[8] = second compound 0.316 µM, first compound 0.00316 µM
[9] = second compound 0.316 µM, first compound 0.01 µM
[10] = second compound 0.316 µM, first compound 0.0316 µM
[11] = second compound 1 µM, first compound 0.000316 µM
[12] = second compound 1 µM, first compound 0.001 µM
[13] = second compound 1 µM, first compound 0.00316 µM
[14] = second compound 1 µM, first compound 0.01 µM
[15] = second compound 1 µM, first compound 0.0316 µM
[16] = second compound 3.16 µM, first compound 0.000316 µM
[17] = second compound 3.16 µM, first compound 0.001 µM
[18] = second compound 3.16 µM, first compound 0.00316 µM
[19] = second compound 3.16 µM, first compound 0.01 µM
[20] = second compound 3.16 µM, first compound 0.0316 µM
[21] = second compound 10 µM, first compound 0.000316 µM
[22] = second compound 10 µM, first compound 0.001 µM
[23] = second compound 10 µM, first compound 0.00316 µM
[24] = second compound 10 µM, first compound 0.01 µM
[25] = second compound 10 µM, first compound 0.0316 µM
[26] = second compound 0.1 µM, first compound 0.1 µM
[27] = second compound 0.316 µM, first compound 0.1 µM
[28] = second compound 1 µM, first compound 0.1 µM
[29] = second compound 3.16 µM, first compound 0.1 µM
[30] = second compound 10 µM, first compound 0.1 µM
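Note: spheroids exposed to agents for seven days before readout.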

Question: What does the source list for `CC(=O)Nc1cccc(-n2c(=O)n(C3CC3)c(=O)c3c(Nc4ccc(I)cc4F)n(C)c(=O)c(C)c32)c1` + CC1OCC2(CCN(c3cnc(Sc4ccnc(N)c4Cl)c(N)n3)CC2)C1N?
Answer: IC50 (second compound 0.1 µM): < 0.1 nM; IC50 (second compound 0.316 µM): < 0.1 nM; IC50 (second compound 1 µM): < 0.1 nM; IC50 (second compound 3.16 µM): < 0.1 nM; IC50 (second compound 10 µM): < 0.1 nM; viability, T/C (second compound 0.1 µM, first compound 0.0001 µM): 47.1%; viability, T/C [1]: 40.5%; viability, T/C [2]: 40.2%; viability, T/C [3]: 39.1%; viability, T/C [4]: 36.4%; viability, T/C [5]: 27.9%; viability, T/C (second compound 0.316 µM, first compound 0.0001 µM): 38.1%; viability, T/C [6]: 39.2%; viability, T/C [7]: 34.3%; viability, T/C [8]: 30.9%; viability, T/C [9]: 26.4%; viability, T/C [10]: 23.1%; viability, T/C (second compound 1 µM, first compound 0.0001 µM): 32.4%; viability, T/C [11]: 31.1%; viability, T/C [12]: 24.8%; viability, T/C [13]: 22%; viability, T/C [14]: 21.4%; viability, T/C [15]: 18.2%; viability, T/C (second compound 3.16 µM, first compound 0.0001 µM): 21.6%; viability, T/C [16]: 17.2%; viability, T/C [17]: 14.5%; viability, T/C [18]: 15.1%; viability, T/C [19]: 14.5%; viability, T/C [20]: 13.6%; viability, T/C (second compound 10 µM, first compound 0.0001 µM): 15.2%; viability, T/C [21]: 12.9%; viability, T/C [22]: 11.8%; viability, T/C [23]: 10.4%; viability, T/C [24]: 12.7%; viability, T/C [25]: 10.6%

Question: For `CC(C)n1nc(-c2ccc3oc(N)nc3c2)c2c(N)ncnc21` + CC1OCC2(CCN(c3cnc(Sc4ccnc(N)c4Cl)c(N)n3)CC2)C1N, which IC50 (second compound 0.1 µM) is on record?
Answer: The IC50 was under 0.316 nM.

Question: What about the IC50 (second compound 0.316 µM) of the same molecule?
Answer: The IC50 was under 0.316 nM.

Question: What about the IC50 (second compound 1 µM) of the same molecule?
Answer: Its IC50 is under 0.316 nM.

Question: And the IC50 (second compound 3.16 µM)?
Answer: The IC50 was under 0.316 nM.

Question: What about the IC50 (second compound 10 µM) of the same molecule?
Answer: Its IC50 is under 0.316 nM.

Question: What about the viability, T/C [1] of the same molecule?
Answer: Its viability, T/C is 40.7%.

Question: And the viability, T/C [2]?
Answer: Its viability, T/C is 30.6%.

Question: What about the viability, T/C [3] of the same molecule?
Answer: Its viability, T/C is 17.2%.

Question: What about the viability, T/C [4] of the same molecule?
Answer: The viability, T/C was 12.1%.

Question: What about the viability, T/C [5] of the same molecule?
Answer: The viability, T/C was 8.84%.

Question: And the viability, T/C [26]?
Answer: Its viability, T/C is 6.47%.

Question: What about the viability, T/C [6] of the same molecule?
Answer: The viability, T/C was 31%.

Question: What about the viability, T/C [7] of the same molecule?
Answer: Its viability, T/C is 24.8%.

Question: What about the viability, T/C [8] of the same molecule?
Answer: The viability, T/C was 16.8%.

Question: What about the viability, T/C [9] of the same molecule?
Answer: The viability, T/C was 11.5%.

Question: What about the viability, T/C [10] of the same molecule?
Answer: The viability, T/C was 9.93%.

Question: What about the viability, T/C [27] of the same molecule?
Answer: The viability, T/C was 5.71%.

Question: And the viability, T/C [11]?
Answer: Its viability, T/C is 25.2%.

Question: And the viability, T/C [12]?
Answer: The viability, T/C was 20.3%.

Question: What about the viability, T/C [13] of the same molecule?
Answer: The viability, T/C was 12%.

Question: What about the viability, T/C [14] of the same molecule?
Answer: Its viability, T/C is 8.84%.

Question: What about the viability, T/C [15] of the same molecule?
Answer: Its viability, T/C is 8.27%.

Question: And the viability, T/C [28]?
Answer: Its viability, T/C is 5.69%.

Question: What about the viability, T/C [16] of the same molecule?
Answer: The viability, T/C was 17.6%.

Question: What about the viability, T/C [17] of the same molecule?
Answer: The viability, T/C was 16.4%.

Question: And the viability, T/C [18]?
Answer: The viability, T/C was 9.88%.

Question: And the viability, T/C [19]?
Answer: The viability, T/C was 5.58%.

Question: What about the viability, T/C [20] of the same molecule?
Answer: The viability, T/C was 3.72%.

Question: What about the viability, T/C [29] of the same molecule?
Answer: Its viability, T/C is 3.13%.

Question: And the viability, T/C [21]?
Answer: The viability, T/C was 11.4%.

Question: And the viability, T/C [22]?
Answer: Its viability, T/C is 11.2%.

Question: What about the viability, T/C [23] of the same molecule?
Answer: The viability, T/C was 6.08%.

Question: What about the viability, T/C [24] of the same molecule?
Answer: The viability, T/C was 4.41%.

Question: What about the viability, T/C [25] of the same molecule?
Answer: The viability, T/C was 3.77%.

Question: What about the viability, T/C [30] of the same molecule?
Answer: The viability, T/C was 1.91%.

Question: `COC(=O)c1ccc2c(C(=Nc3ccc(N(C)C(=O)CN4CCN(C)CC4)cc3)c3ccccc3)c(O)[nH]c2c1` + CC1OCC2(CCN(c3cnc(Sc4ccnc(N)c4Cl)c(N)n3)CC2)C1N was tested. Which IC50 (second compound 0.1 µM) did it give?
Answer: Its IC50 is under 31.6 nM.

Question: And the IC50 (second compound 0.316 µM)?
Answer: Its IC50 is under 31.6 nM.

Question: And the IC50 (second compound 1 µM)?
Answer: The IC50 was under 31.6 nM.

Question: And the IC50 (second compound 3.16 µM)?
Answer: Its IC50 is under 31.6 nM.

Question: And the IC50 (second compound 10 µM)?
Answer: Its IC50 is under 31.6 nM.

Question: What about the viability, T/C [5] of the same molecule?
Answer: The viability, T/C was 39.2%.

Question: And the viability, T/C [26]?
Answer: Its viability, T/C is 35.5%.

Question: And the viability, T/C (second compound 0.1 µM, first compound 0.316 µM)?
Answer: The viability, T/C was 36.7%.

Question: What about the viability, T/C (second compound 0.1 µM, first compound 1 µM) of the same molecule?
Answer: The viability, T/C was 37.2%.

Question: What about the viability, T/C (second compound 0.1 µM, first compound 3.16 µM) of the same molecule?
Answer: Its viability, T/C is 36.6%.

Question: And the viability, T/C (second compound 0.1 µM, first compound 10 µM)?
Answer: Its viability, T/C is 38.2%.

Question: And the viability, T/C [10]?
Answer: The viability, T/C was 35.3%.

Question: What about the viability, T/C [27] of the same molecule?
Answer: The viability, T/C was 32.1%.

Question: What about the viability, T/C (second compound 0.316 µM, first compound 0.316 µM) of the same molecule?
Answer: Its viability, T/C is 28.8%.

Question: And the viability, T/C (second compound 0.316 µM, first compound 1 µM)?
Answer: Its viability, T/C is 28.8%.

Question: And the viability, T/C (second compound 0.316 µM, first compound 3.16 µM)?
Answer: Its viability, T/C is 24.6%.

Question: What about the viability, T/C (second compound 0.316 µM, first compound 10 µM) of the same molecule?
Answer: Its viability, T/C is 25.6%.

Question: And the viability, T/C [15]?
Answer: The viability, T/C was 34.4%.

Question: What about the viability, T/C [28] of the same molecule?
Answer: The viability, T/C was 25.5%.

Question: And the viability, T/C (second compound 1 µM, first compound 0.316 µM)?
Answer: Its viability, T/C is 18.5%.

Question: And the viability, T/C (second compound 1 µM, first compound 1 µM)?
Answer: Its viability, T/C is 20.4%.

Question: And the viability, T/C (second compound 1 µM, first compound 3.16 µM)?
Answer: The viability, T/C was 15.4%.

Question: What about the viability, T/C (second compound 1 µM, first compound 10 µM) of the same molecule?
Answer: Its viability, T/C is 19.5%.

Question: What about the viability, T/C [20] of the same molecule?
Answer: The viability, T/C was 29.1%.

Question: What about the viability, T/C [29] of the same molecule?
Answer: Its viability, T/C is 23.2%.

Question: And the viability, T/C (second compound 3.16 µM, first compound 0.316 µM)?
Answer: The viability, T/C was 17%.

Question: What about the viability, T/C (second compound 3.16 µM, first compound 1 µM) of the same molecule?
Answer: The viability, T/C was 12.7%.

Question: And the viability, T/C (second compound 3.16 µM, first compound 3.16 µM)?
Answer: Its viability, T/C is 10.5%.

Question: What about the viability, T/C (second compound 3.16 µM, first compound 10 µM) of the same molecule?
Answer: Its viability, T/C is 10.7%.

Question: And the viability, T/C [25]?
Answer: Its viability, T/C is 21.2%.

Question: And the viability, T/C [30]?
Answer: Its viability, T/C is 16%.

Question: What about the viability, T/C (second compound 10 µM, first compound 0.316 µM) of the same molecule?
Answer: Its viability, T/C is 9.59%.

Question: And the viability, T/C (second compound 10 µM, first compound 1 µM)?
Answer: Its viability, T/C is 8.94%.

Question: And the viability, T/C (second compound 10 µM, first compound 3.16 µM)?
Answer: Its viability, T/C is 3.3%.

Question: And the viability, T/C (second compound 10 µM, first compound 10 µM)?
Answer: Its viability, T/C is 1.71%.
